Publication PMC11627468, “Novel enzyme‐resistant pancreatic polypeptide analogs evoke pancreatic beta‐cell rest, enhance islet cell turnover, and inhibit food intake in mice” (Biofactors (Oxford, England), 2024)
Starred links: 1 amine or outer side, 2 acyl side, 3 side chain; linkers in the order of their positions; H or OH if unused. Residues, ends and D or L forms follow the SMILES beside them. Groups on a side chain read outwards from the residue. *: point of attachment. γGlu = O=C(O)[C@H](CCC(=O)[*:2])N[*:1]; Palmitoyl = CCCCCCCCCCCCCCCC(=O)*

Key:
C57BL/6 mice [1] = assay: Acute food intake in overnight fasted mice; format: in vivo
Method: (§1) Acute in vivo studies were conducted in groups (n = 6) of 4‐month‐old male C57BL/6 mice (Envigo, Huntington, UK). All mice were maintained on standard rodent chow (10% fat, 30% protein, and 60% carbohydrate; Trouw Nutrition, Northwich, UK), and drinking water provided ad libitum. Mice were housed individually and kept in a temperature‐controlled environment (22 ± 2°C), with a 12‐h light/dark cycle. Experiments were carried out in accordance with the UK Animal Scientific Procedures Act 1986 as well as being approved by Ulster University Animal Ethics Review Committee (AWERB) committee and protected by the UK Home Office Animal project license number PPL2902, approved on April 26, 2021. Acute effects of test peptides on food intake were tested in overnight (16 h) fasted mice. Briefly, fasted mice were administered an intraperitoneal (i.p.) injection of saline vehicle (0.9% (w/v) NaCl) alone or in combination with test peptides (each at 25, 75, or 200 nmol/kg bw) and cumulative food intake measured at regular intervals, to assess the pharmacodynamic profile of the test peptides. For food intake studies, mice were provided with preweighed rodent maintenance diet in their food hopper at t = 0 min, which was then re‐weighed at each timepoint with all due care taken to account for any wastage or crumbling of the food pellets. In this regard, the investigator was present at all times during the 180‐min test period to ensure accuracy and consistency in all measurements. Furthermore, effects of PP or related peptides (25 nmol/kg bw) on glucose homeostasis and insulin secretion were evaluated in overnight fasted mice following i.p. injection of glucose alone (18 mmol/kg bw) or in combination with PP peptides (each at 25 nmol/kg bw).

C57BL/6 mice [2] = assay: Glucose‐stimulated plasma insulin in mice; format: in vivo; details: peptide 25 nmol/kg with glucose 18 mmol/kg i.p., versus glucose control; n = 6
Method: as §1, with “bw). […] Blood glucose was measured immediately using a hand‐held Ascencia Contour blood glucose meter (Bayer Healthcare, Newbury, Berkshire, UK). For plasma insulin, blood was collected in chilled fluoride/heparin‐coated microcentrifuge tubes (Sarstedt, Numbrecht, Germany) and centrifuged using a Beckman microcentrifuge (Beckman Instruments, Galway, Ireland) for 10 min at 12,000 rpm. Plasma was separated and stored at −20°C, until determination of plasma insulin by radioimmunoassay.[23]” for “bw).”

DPP-4 = test system: T1, DPP-4; assay: In vitro DPP‐4 degradation; format: in vitro ADME, human; details: purified human DPP-4 enzyme; peptide 50 μg with purified human DPP‐4 (5 μL, 0.01 U/L), 37°C, 8 h; stopped with 10% (v/v) trifluoroacetic acid; rp‐HPLC C‐18, UV 214 nm; peaks by MALDI‐MS; read-out: % intact peptide after 8 h DPP‐4 incubation
T1 construct: purchased Sigma-Aldrich
Method: PP peptides (50 μg) were incubated at 37°C for 0–8 h with 5 μL of purified human DPP‐4 enzyme (0.01 U/L, Sigma‐Aldrich, Gillingham, UK). Degradation reactions were terminated via the addition of 10 μL 10% (v/v) trifluoroacetic acid/water solution. Reaction mixes were separated by reverse phase rp‐HPLC using a Phenomenex C‐18 analytical column (250 × 4.6 mm^2) with UV absorbance detection at 214 nm (ThermoQuest SpectraSystem UV2000 detector). HPLC peaks of interest were collected and analyzed by MALDI‐TOF MS on a Perseptive Biosystems Voyager‐DE Biospectrometry (Hertfordshire, UK).

BRIN‐BD11 beta‐cells = assay: Beta‐cell proliferation (Ki‐67 staining); format: cell-based; details: peptide 10^−8 M, versus control cultures, n = 3
Method: To assess the effects of PP and related peptides (10^−8 and 10^−6 M) on beta‐cell proliferation and apoptosis, BRIN‐BD11 beta‐cells were seeded onto sterilized, clear‐glass coverslips (16 mm diameter) and placed in 12‐well plates (Falcon Ltd) at a density of 40,000 cells per well and cultured for 18 h. Media control (11.1 mM glucose), GLP‐1 (10^−8 and 10^−6 M), and a cytokine cocktail mix (IL‐1β [100 U/mL], IFNγ [20 U/mL], TNFα [200 U/mL], Sigma Aldrich, UK) were employed as controls, as appropriate. Cells were then rinsed with PBS and fixed using 4% paraformaldehyde. After antigen retrieval with sodium citrate buffer at 95°C for 20 min, blocking was performed using 2% bovine serum albumin (BSA) for 45 min. For proliferation studies, the slips were then incubated at 37°C with rabbit anti‐Ki‐67 primary antibody (Abcam, ab15580), and subsequently with Alexa Fluor® 488 secondary antibody. Coverslips were mounted onto polylysine‐coated microscope slides using a 50:50 glycerol:PBS solution and stored at 4°C until required for analysis. To assess the ability of PP peptides to protect against cytokine‐induced apoptosis, cells were seeded, washed, and fixed as above, with the exception that the media was supplemented with the cytokine mix. The slips were then incubated at 37°C with TUNEL reaction mix for 60 min (Roche Diagnostics, Germany), and mounted onto microscope slides. To assess receptor specificity, co‐incubation of PP peptides with the well characterized NPY4R antagonist, (S)‐VU0637120,[24] at 10^−5 M was employed for beta‐cell proliferation experiments, conducted as detailed above. All slides were viewed using a fluorescent microscope (Olympus System Microscope, model BX51; Southend‐on‐Sea, UK) and photographed by DP70 camera adapter system. Proliferation/TUNEL positive frequency was determined using the cell‐counter function on ImageJ Software and expressed as % of total cells analyzed.

Q: What does the source list for “(N‐Pal)APPEPVYPGDNATPEQMAQYAADLRRYINMLTRPR‐NH2 [[N‐Pal,P^3]PP, PP analog with Pro^3 and N‐terminal C‐16 palmitate via γ‐glutamyl spacer]”?
A: cumulative food intake (appetite suppression) (C57BL/6 mice [1]; all doses employed (25, 75, 200 nmol/kg i.p.), overnight fasted mice, n = 6): lacked bioactivity; glucose‐induced insulin secretion (plasma insulin) (C57BL/6 mice [2]): slightly decreasing (p = <0.05 to 0.01)

Q: `CC[C@H](C)[C@H](NC(=O)[C@H](Cc1ccc(O)cc1)NC(=O)[C@H](CCCNC(=N)N)NC(=O)[C@H](CCCNC(=N)N)NC(=O)[C@H](CC(C)C)NC(=O)[C@H](CC(=O)O)NC(=O)[C@H](C)NC(=O)[C@H](C)NC(=O)[C@H](Cc1ccc(O)cc1)NC(=O)[C@H](CCC(N)=O)NC(=O)[C@H](C)NC(=O)[C@H](CCSC)NC(=O)[C@H](CCC(N)=O)NC(=O)[C@H](CCC(=O)O)NC(=O)[C@@H]1CCCN1C(=O)[C@@H](NC(=O)[C@H](C)NC(=O)[C@H](CC(N)=O)NC(=O)[C@H](CC(=O)O)NC(=O)CNC(=O)[C@@H]1CCCN1C(=O)[C@H](Cc1ccc(O)cc1)NC(=O)[C@@H](NC(=O)[C@@H]1CCCN1C(=O)[C@H](CCC(=O)O)NC(=O)[C@@H]1CCCN1C(=O)[C@@H]1CCCN1C(=O)[C@H](C)N)C(C)C)[C@@H](C)O)C(=O)N[C@@H](CC(N)=O)C(=O)N[C@@H](CCSC)C(=O)N[C@@H](CC(C)C)C(=O)N[C@H](C(=O)N[C@@H](CCCNC(=N)N)C(=O)N1CCC[C@H]1C(=O)N[C@@H](CCCNC(=N)N)C(=O)N[C@@H](Cc1ccc(O)cc1)C(N)=O)[C@@H](C)O` [[P^3]PP] was tested. Which remaining at 8 h (DPP-4) did it give?
A: > 99%

Q: What does the source list for `CCCCCCCCCCCCCCCC(=O)N[C@@H](CCC(=O)NCCCC[C@H](NC(=O)[C@H](C)NC(=O)[C@H](CC(N)=O)NC(=O)[C@H](CC(=O)O)NC(=O)CNC(=O)[C@@H]1CCCN1C(=O)[C@H](Cc1ccc(O)cc1)NC(=O)[C@@H](NC(=O)[C@@H]1CCCN1C(=O)[C@H](CCC(=O)O)NC(=O)[C@H](CC(C)C)NC(=O)[C@@H]1CCCN1C(=O)[C@H](C)N)C(C)C)C(=O)N1CCC[C@H]1C(=O)N[C@@H](CCC(=O)O)C(=O)N[C@@H](CCC(N)=O)C(=O)N[C@@H](CCSC)C(=O)N[C@@H](C)C(=O)N[C@@H](CCC(N)=O)C(=O)N[C@@H](Cc1ccc(O)cc1)C(=O)N[C@@H](C)C(=O)N[C@@H](C)C(=O)N[C@@H](CC(=O)O)C(=O)N[C@@H](CC(C)C)C(=O)N[C@@H](CCCNC(=N)N)C(=O)N[C@@H](CCCNC(=N)N)C(=O)N[C@@H](Cc1ccc(O)cc1)C(=O)N[C@H](C(=O)N[C@@H](CC(N)=O)C(=O)N[C@@H](CCSC)C(=O)N[C@@H](CC(C)C)C(=O)N[C@H](C(=O)N[C@@H](CCCNC(=N)N)C(=O)N1CCC[C@H]1C(=O)N[C@@H](CCCNC(=N)N)C(=O)N[C@@H](Cc1ccc(O)cc1)C(N)=O)[C@@H](C)O)[C@@H](C)CC)C(=O)O` [[K^13Pal]PP] (H-APLEPVYPGDNAK([γGlu-Palmitoyl])PEQMAQYAADLRRYINMLTRPRY-NH2; N-terminus assumed)?
A: food intake in combination with exendin‐4 (C57BL/6 mice [1]; PP peptide 25 nmol/kg with exendin‐4 0.25 nmol/kg i.p., fasted mice, n = 6): additive appetite suppressive actions; food intake in overnight fasted mice, summary in discussion (C57BL/6 mice [1]; i.p., overnight fasted mice): retained impressive effects to restrict food intake; BRIN‐BD11 cell proliferation (BRIN‐BD11 beta‐cells): augmented
